These results are taken from patent EP1170007A1, “REMEDIES” (Takara Shuzo Co, Ltd., priority 1999, dated 2000).

Data set [1] has as its system HGF production, MRC-5 cells. The data set can be described thus: Enhancement of HGF production in MRC-5 cells (ELISA). The conditions noted are these: 24 hours, negative control defined as 100% (7.2 ng/ml). The data set is classed as cell-based, Human. The protocol:
MRC-5 cells (CCL171, Dainippon Pharmaceutical) were suspended in a DME medium (Bio Whittaker) containing 10% fetal calf serum at a concentration of 1 x 10^5 cells/ml. 500 µl of the suspension was placed into a 48-well cell culture plate. After culturing at 37°C in the presence of 5% CO2 for 24 hours, the medium was exchanged for a DME medium containing 1% fetal calf serum. Then, one of samples was added thereto. The plate was incubated for additional 24 hours. The medium was then recovered, and the amount of HGF in the culture medium was measured using Quantikine Human Hepatocyte Growth Factor (HGF) ELISA Kit (Funakoshi). The amount of HGF produced was expressed defining a negative control as 100%. In this case, the amount of HGF produced for the negative control was 7.2 ng/ml. Cyclopentenone (at a final concentration of 20, 40 or 160 µM), GM (at a final concentration of 20, 40, 80 or 160 µM), or dipropionylcyclopentenone (at a final concentration of 32 or 64 µM) was added as a sample. As a negative control, distilled water was added in the same volume as the sample. As a positive control, prostaglandin E1 was added at a final concentration of 0.01, 0.1, 1 or 10 µM.

The subject of data set [2] is human insulin-like growth factor-1 (h-IGF-1) production in Hs68 cells. The data set can be described thus: Enhancement of h-IGF-1 production in Hs68 cells (ELISA). It counts as cell-based. The conditions noted are these: Example 3-(2): 10 to 20 µM. The protocol:
(1) Human newborn foreskin […] Hs68 cells (ATCC CRL-1635) were cultured in a D-MEM medium (Bio Whittaker) containing 10% fetal calf serum (FBS; Gibco BRL) in the presence of 5% CO2 at 37°C to saturation in a culture vessel. Then, the cells were suspended in the medium at a concentration of 3 x 10^5/ml using a trypsin-EDTA solution (Bio Whittaker). 200 µl of the suspension was dispensed into each well of a 96-well microtiter plate. When the cells were almost saturated in the culture vessel after culturing for 5 days, the medium was discarded and a medium containing 4HCP at a concentration of 40, 100 or 200 µM was added thereto. The culture supernatant was recovered at intervals of 24 hours for up to 96 hours. The effect of 4HCP on enhancement of human insulin-like growth factor-1 (h-IGF-1) production in Hs68 cells was determined using ELISA-Kit for h-IGF-1 (Diagnostic System Labo).
(2) Hs68 cells were cultured in a D-MEM medium containing 10% fetal calf serum in the presence of 5% CO2 at 37°C to saturation in a culture vessel. Then, the cells were suspended in the medium at a concentration of 3 x 10^5/ml using a trypsin-EDTA solution. 200 µl of the suspension was dispensed into each well of a 96-well microtiter plate. When the cells were almost saturated in the culture vessel after culturing for 5 to 7 days, the medium was discarded and the medium containing cyclopentenone or GM at a concentration of 0, 2.5, 5, 10 or 20 µM was added thereto. The culture supernatant was recovered at 1, 3, 6, 12, 24 or 48 hours. The effect of cyclopentenone or GM on the production (enhancement of expression) of h-IGF-1 in Hs68 cells was determined using ELISA-Kit for h-IGF-1. […] The amount of h-IGF-1 produced 6 hours after the addition was about twice the amount for the control with no addition. […] (3) Hs68 cells were cultured in a D-MEM medium containing 10% fetal calf serum in the presence of 5% CO2 at 37°C to saturation in a culture vessel. Then, the cells were suspended in the medium at a concentration of 3 x 10^5/ml using a trypsin-EDTA solution. 200 µl of the suspension was dispensed into each well of a 96-well microtiter plate. When the cells were almost saturated in the culture vessel after culturing for 5 to 7 days, the medium was discarded and the medium containing 4HCP, a compound of formula (XVIII) (4HCP-GSH) or glutathione (GSH) at a concentration of 0, 25, 50, 100 or 200 µM was added thereto. The culture supernatant was recovered at 1, 3, 6, 12, 24 or 48 hours. The effect on the production (enhancement of expression) of h-IGF-1 in Hs68 cells was determined using ELISA-Kit for h-IGF-1. As a result, when 4HCP was added at a concentration of 25 to 200 µM, h-IGF production in Hs68 cells became maximal at 1 hour and decreased thereafter as the time went by. […] Significant enhancement of h-IGF-1 production was observed when cultured for 10 to 30 minutes. […]
Background: In an ELISA, binding on a coated surface is turned into a signal by an enzyme label.

In another data set the test system is mouse. In words: Single oral dose toxicity in mouse. The data set is classed as in vivo.
Data set [3] deals with nerve growth factor production by L-M cells. The data set can be described thus: Enhancement of nerve growth factor production in L-M cells (enzyme immunoassay). It counts as cell-based, Rat. The following applies: for Nerve growth factor concentration: 24 hours, 0 µM control 0.132. As for the experimental part: Rat fibroblast L-M cells (ATCC CCL-1.2) were suspended in a M199 medium (Gibco) containing 0.5% Bacto Peptone (Gibco) at a concentration of 1.0 x 10^5 cells/ml. 1 ml of the suspension was inoculated into each well of a 24-well plate. The cells were cultured aseptically. After culturing for 2 days, the medium was removed and substituted with a M199 medium containing 0.5% bovine serum albumin (Sigma). Then, cyclopentenone (final concentration of 1 to 25 µM), 4HCP (Aldrich) (final concentration of 12.5µM) or dipropionylcyclopentenone (final concentration of 3.1 to 9.4 µM) was added thereto. […]
After completion of the incubation, the concentration of nerve growth factor in the culture was measured by enzyme immunoassay (NGF Emax Immuno Assay System: Promega). […]

`N[C@@H](CCC(=O)N[C@@H](CSC1C=C(O)C(=O)C1)C(=O)NCC(=O)O)C(=O)O` (some centres unmarked) [GM, 2-hydroxy-4-glutathion-S-yl-2-cyclopenten-1-one]: the “Increase in HGF production” value in data set [1] (20 µM) was 154%; in data set [1] (40 µM) it was 179%; in data set [1] (80 µM) it was 243%; in data set [1] (160 µM) it was 319%. Also, the “production of h-IGF-1 in Hs68 cells (result in words)” value in data set [2] is given as “production of h-IGF in Hs68 cells was observed 3 hours after the addition”. Moreover, in data set [2] (6 hours after the addition), the “amount of h-IGF-1 produced relative to the control with no addition” value is “about twice”. Moreover, the “death after single oral dose” value in the data set with mouse (mouse, in vivo, po, 100 mg/kg) is listed as “no example of death was observed”.
dipropionylcyclopentenone: the “Nerve growth factor concentration” value in data set [3] (3.1 µM) came to 0.164 ng/mL; in data set [3] (6.3 µM), 0.259 ng/mL; in data set [3] (9.4 µM), 0.257 ng/mL. Further, the “production of nerve growth factor by L-M cells (result in words)” value in data set [3] (24 hours incubation) is “enhanced the production of nerve growth factor by L-M cells in a concentration-dependent manner”. Moreover, the “Increase in HGF production” value worked out at 120% in data set [1] (32 µM) and 144% in data set [1] (64 µM). In addition, the “death after single oral dose” value with mouse (single dose orally administered to a mouse at 100 mg/kg) is “no example of death was observed”.
